Earlier results in patent publication US20260218090A1, “A LOW-TEMPERATURE, CAUSTIC DISHWARE […]” (priority 2023, published 2026).
Where two headings read alike, the source gives them in different places.

What was measured:
C. albicans = conditions: NaOH 0.5 M (20,000 ppm); 4 or 22 °C; detection limit less than 3 organisms/mL; cited from earlier work
A. niger = conditions: NaOH 0.5 M (20,000 ppm); 4 or 22 °C; detection limit less than 3 organisms/mL; cited from earlier work
B. subtilis spores = conditions: NaOH 1.0 M (40,000 ppm), cited from earlier work
S. aureus = conditions: NaOH 0.1 M (4,000 ppm); 4 or 22 °C; detection limit less than 3 organisms/mL; cited from earlier work
E. coli = conditions: NaOH 0.01 M (400 ppm); 4 or 22 °C; detection limit less than 3 organisms/mL; cited from earlier work
P. aeruginosa = conditions: NaOH 0.5 M (20,000 ppm); 22 °C; detection limit less than 3 organisms/mL; cited from earlier work

[Na+].[OH-] [NaOH, sodium hydroxide]
Time for reduction of the organism below the detection limit (C. albicans): 1 h | Time for reduction of the organism below the detection limit (A. niger): 1 h | Time for reduction of the organism below the detection limit (B. subtilis spores; 4 °C, detection limit less than 100 organisms/mL): 8 days | Time for reduction of the organism below the detection limit (B. subtilis spores; 22 °C, detection limit 10 organisms/mL): 2 days | Time for reduction of the organism below the detection limit (S. aureus): 1 h | Time for reduction of the organism below the detection limit (E. coli): 2 h | Time for reduction of the organism below the detection limit (P. aeruginosa): 1 h
